Results: paper PMC3175016 (Journal of applied toxicology : JAT, 2011)
Marks after values point to notes of the source that are not given here.

Columns and labels:
Assay type in all cases: in vivo
male Fischer 344 rats [1] = experiment: Serum alanine aminotransferase; details: 24 h; for serum alanine aminotransferase (ALT) activity: corn oil controls 36.0 ± 11.3
male Fischer 344 rats [2] = experiment: Blood urea nitrogen; details: for Blood urea nitrogen: i.p. in corn oil, 24 h, mean ± SE, N = 3–4
male Fischer 344 rats [3] = experiment: Urine volume after a single i.p. dose; details: for Twenty-four-hour urine volume: i.p. in corn oil, mean ± SE, N = 3–4
male Fischer 344 rats [4] = experiment: Six-hour urine protein content after a single i.p. dose; details: i.p. in corn oil, mean ± SE, N = 3–4
male Fischer 344 rats [5] = experiment: Liver weight 24 h after a single i.p. dose; details: i.p. in corn oil, mean ± SE, N = 3–4
male Fischer 344 rats [6] = experiment: Kidney weight 24 h after a single i.p. dose; details: i.p. in corn oil, mean ± SE, N = 3–4
male Fischer 344 rats [7] = experiment: Liver histology; details: 24 h
male Fischer 344 rats [8] = experiment: Kidney histology; details: all doses evaluated, i.p., 24 h, vs corn oil
[9] = all four doses (0.2, 0.4, 0.6, 1.0 mmol/kg) i.p., vs corn oil
[10] = dose 0.2 (head mg/kg; text mmol/kg)
[11] = dose 0.4 (head mg/kg; text mmol/kg)
[12] = dose 0.6 (head mg/kg; text mmol/kg)
[13] = dose 1.0 (head mg/kg; text mmol/kg)
[14] = all doses (0.2–1.0 mmol/kg) i.p.

Row | Compound | Blood urea nitrogen (male Fischer 344 rats [2]; [10]) | Blood urea nitrogen (male Fischer 344 rats [2]; [11]) | Blood urea nitrogen (male Fischer 344 rats [2]; [12]) | Blood urea nitrogen (male Fischer 344 rats [2]; [13]) | Twenty-four-hour urine volume (male Fischer 344 rats [3]; [10]) | Twenty-four-hour urine volume (male Fischer 344 rats [3]; [11]) | Twenty-four-hour urine volume (male Fischer 344 rats [3]; [12]) | Twenty-four-hour urine volume (male Fischer 344 rats [3]; [13]) | Six-hour urine protein content (male Fischer 344 rats [4]; [10]) | Six-hour urine protein content (male Fischer 344 rats [4]; [11]) | Six-hour urine protein content (male Fischer 344 rats [4]; [12]) | Six-hour urine protein content (male Fischer 344 rats [4]; [13]) | Liver weight (male Fischer 344 rats [5]; [10]) | Liver weight (male Fischer 344 rats [5]; [11]) | Liver weight (male Fischer 344 rats [5]; [12]) | Liver weight (male Fischer 344 rats [5]; [13]) | Kidney weight (male Fischer 344 rats [6]; [10]) | Kidney weight (male Fischer 344 rats [6]; [11]) | Kidney weight (male Fischer 344 rats [6]; [12]) | Kidney weight (male Fischer 344 rats [6]; [13]) | other results
1 | O=C1SCCN1c1cc(Cl)cc(Cl)c1 [2-DCTD, 3-(3,5-dichlorophenyl)-2-thiazolidinone] | 23.0 ± 1.2^g mg/dl | 22.3 ± 1.1^g mg/dl | 23.9 ± 0.9^g mg/dl | 24.4 ± 0.7^g mg/dl | 6.0 ± 0.8^d ml | 4.3 ± 0.3^d ml | 5.0 ± 0.7^d ml | 4.4 ± 1.3^d ml | 1.6 ± 0.4^d mg | 1.8 ± 0.1^d mg | 2.2 ± 0.1^d mg | 2.0 ± 0.1^d mg | 3.96 ± 0.10^d g/100% BW | 3.71 ± 0.11^d g/100% BW | 3.74 ± 0.11^d g/100% BW | 3.85 ± 0.15^d g/100% BW | 0.39 ± 0.01^e g/ 100% BW | 0.38 ± 0.01^e g/ 100% BW | 0.40 ± 0.01^e g/ 100% BW | 0.37 ± 0.01^e g/ 100% BW | Change in serum ALT levels (male Fischer 344 rats [1]; [9]): did not exhibit any significant changes in serum ALT levels; Liver morphology (male Fischer 344 rats [7]; [14]): generally normal, although some nuclear condensation was evident; Kidney morphology (male Fischer 344 rats [8]): did not produce any noticeable changes in the kidney morphology
2 | O=C1CSCN1c1cc(Cl)cc(Cl)c1 [4-DCTD, 3-(3,5-dichlorophenyl)-4-thiazolidinone] | 26.8 ± 1.5^d mg/dl | 25.6 ± 1.9^d mg/dl | 33.8 ± 2.4*,^e mg/dl | 42.5 ± 1.1*,^f mg/dl | 12.3 ± 1.7*,^c ml | 11.3 ± 2.2*,^c ml | 9.1 ± 1.6*,^c ml | 12.3 ± 1.0*,^c ml | 1.8 ± 0.3^c mg | 1.6 ± 0.2^c mg | 1.9 ± 0.4^c mg | 2.8 ± 0.3^c mg | 3.74 ± 0.23^c g/100% BW | 3.96 ± 0.18^c g/100% BW | 3.46 ± 0.09^c g/100% BW | 3.81 ± 0.15^c g/100% BW | 0.40 ± 0.01^d g/ 100% BW | 0.37 ± 0.01^d g/ 100% BW | 0.41 ± 0.01^d g/ 100% BW | 0.42 ± 0.01^d g/ 100% BW | Change in serum ALT levels (male Fischer 344 rats [1]; [9]): did not exhibit any significant changes in serum ALT levels; Diuresis / increase in urine volume (male Fischer 344 rats [3]; all doses, compared to controls, not dose-dependent): approximately three and a half-fold increase; Liver morphology (male Fischer 344 rats [7]; [14]): no changes in hepatic morphology; Kidney morphology (male Fischer 344 rats [8]): Minor swelling in the proximal tubular cells and slight dilation of collecting tubules
3 | O=C1CSC(=O)N1c1ccc(Cl)cc1 [CPTD, 3-(4-chlorophenyl)-2,4-thiazolidinedione] | 37.9 ± 0.6*,^c mg/dl | 38.1 ± 1.7*,^c mg/dl | 40.4 ± 2.7*,^c mg/dl | 34.9 ± 1.8*,^c mg/dl | 5.7 ± 1.5^b ml | 12.4 ± 4.6*,^c ml | 16.6 ± 0.8*,^c ml | 15.3 ± 2.7*,^c ml | 2.0 ± 0.1^c mg | 1.9 ± 0.1^c mg | 2.0 ± 0.1^c mg | 1.9 ± 0.1^c mg | 3.62 ± 0.16^c g/100% BW | 3.84 ± 0.07^c g/100% BW | 4.36 ± 0.06*,^d g/100% BW | 3.98 ± 0.14*,^c g/100% BW | 0.39 ± 0.02^b g/ 100% BW | 0.41 ± 0.01^b g/ 100% BW | 0.46 ± 0.02*,^c g/ 100% BW | 0.51 ± 0.04*,^c g/ 100% BW | serum alanine aminotransferase (ALT) activity (male Fischer 344 rats [1]; 1.0 mmol/kg i.p. in corn oil): 1622.5 ± 218.5 Sigma-Frankel units/ml; Change in serum ALT levels (male Fischer 344 rats [1]; [9]): significantly elevated; Increase in BUN levels (male Fischer 344 rats [2]; all dosages, compared to corn oil controls): 1.8 fold; Liver morphology (male Fischer 344 rats [7]; 1.0 mmol/kg i.p.): signs of liquefactive necrosis; Liver morphology (male Fischer 344 rats [7]; [14]): necrotic lesions with acute inflammatory response; Kidney morphology (male Fischer 344 rats [8]): minor swelling in some proximal tubular cells
4 | O=C1CSC(=O)N1c1cc(C(F)(F)F)cc(C(F)(F)F)c1 [DFMPT, 3-[3,5-bis(trifluoromethyl)phenyl]-2,4-thiazolidinedione] | 19.6 ± 0.5^e mg/dl | 21.7 ± 0.4^e mg/dl | 22.5 ± 0.5^e mg/dl | 32.7 ± 1.4*,^f mg/dl | 10.1 ± 1.3*,^f ml | 14.1 ± 2.6*,^f,^g ml | 20.0 ± 3.1*,^g,^h ml | 23.5 ± 1.8*,^h ml | 1.1 ± 0.3^e mg | 1.6 ± 0.2^e mg | 1.5 ± 0.2^e mg | 1.0 ± 0.2^e mg | 3.82 ± 0.12^f g/100% BW | 3.59 ± 0.10^f g/100% BW | 3.78 ± 0.07^f g/100% BW | 4.05 ± 0.15*,^f g/100% BW | 0.40 ± 0.01^g g/ 100% BW | 0.42 ± 0.03^g g/ 100% BW | 0.30 ± 0.09^g g/ 100% BW | 0.48 ± 0.01*,^h g/ 100% BW | Change in serum ALT levels (male Fischer 344 rats [1]; [9]): normal; Liver morphology (male Fischer 344 rats [7]; [14]): did not show any noticeable changes in morphology; Kidney morphology (male Fischer 344 rats [8]): minor swelling in some proximal tubular cells
5 | Cc1cc(C)cc(N2C(=O)CSC2=O)c1 [DMPT, 3-(3,5-dimethylphenyl)-2,4-thiazolidinedione] | 18.1 ± 1.3^a mg/dl | 22.2 ± 0.4^a mg/dl | 27.5 ± 1.4*,^b mg/dl | 32.8 ± 3.1*,^b mg/dl | 5.8 ± 1.4*,^a ml | 9.9 ± 2.2*,^a ml | 8.9 ± 1.8*,^a ml | 11.3 ± 2.5*,^a ml | 0.8 ± 0.3^a mg | 1.4 ± 0.1^a mg | 1.9 ± 0.2^a mg | 2.8 ± 0.4*,^b mg | 3.47 ± 0.20^a g/100% BW | 4.10 ± 0.20*,^b g/100% BW | 4.20 ± 0.05*,^b g/100% BW | 3.97 ± 0.04*,^b g/100% BW | 0.38 ± 0.01^a g/ 100% BW | 0.40 ± 0.02^a g/ 100% BW | 0.39 ± 0.00^a g/ 100% BW | 0.38 ± 0.01^a g/ 100% BW | serum alanine aminotransferase (ALT) activity (male Fischer 344 rats [1]; 1.0 mmol/kg i.p. in corn oil): 2071.9 ± 217.8 Sigma-Frankel units/ml; Change in serum ALT levels (male Fischer 344 rats [1]; all doses except the lowest (0.4, 0.6, 1.0 mmol/kg) i.p., vs corn oil): marked increases in serum ALT levels; Liver morphology (male Fischer 344 rats [7]; 0.2 and 0.4 mmol/kg i.p.): necrotic lesions with infiltration of inflammatory cells, neutrophils and lymphocytes; Liver morphology (male Fischer 344 rats [7]; 0.6 and 1.0 mmol/kg i.p.): necrotic lesions were widespread with many inflammatory cells seen around the lesions; Kidney morphology (male Fischer 344 rats [8]): normal
6 | CC1SC(=O)N(c2cc(Cl)cc(Cl)c2)C1=O (centres unmarked) [DPMT, 3-(3,5-dichlorophenyl)-5-methyl-2,4-thiazolidinedione] | 19.6 ± 0.8^a mg/dl | 24.6 ± 1.3^a mg/dl | 19.8 ± 2.8^a mg/dl | 20.0 ± 2.2^a mg/dl | 6.5 ± 2.1^a ml | 8.1 ± 1.7^a ml | 11.6 ± 1.0*,^a ml | 10.8 ± 1.3*,^a ml | 2.1 ± 0.7^a mg | 1.6 ± 0.1^a mg | 2.6 ± 0.8^a mg | 2.5 ± 0.3^a mg | 3.67 ± 0.31^a g/100% BW | 3.81 ± 0.22^a g/100% BW | 4.03 ± 0.27^a g/100% BW | 4.10 ± 0.07^a g/100% BW | 0.37 ± 0.01^a g/ 100% BW | 0.38 ± 0.01^a g/ 100% BW | 0.39 ± 0.01^a g/ 100% BW | 0.41 ± 0.01^a g/ 100% BW | serum alanine aminotransferase (ALT) activity (male Fischer 344 rats [1]; 0.6 mmol/kg i.p. in corn oil): 298.6 ± 176.1 Sigma-Frankel units/ml; serum alanine aminotransferase (ALT) activity (male Fischer 344 rats [1]; 1.0 mmol/kg i.p. in corn oil): 327.3 ± 102.9 Sigma-Frankel units/ml; Change in serum ALT levels (male Fischer 344 rats [1]; 0.6 and 1.0 mmol/kg i.p., vs two lower doses and corn oil): significant elevation in ALT concentrations; Increase in urine volume (male Fischer 344 rats [3]; 0.6 and 1.0 mmol/kg): about three-fold increase; Liver morphology (male Fischer 344 rats [7]; 0.6 mmol/kg i.p.): some damage near the centrilobular vein; Liver morphology (male Fischer 344 rats [7]; 1.0 mmol/kg i.p.): more damaged hepatocytes; Liver morphology (male Fischer 344 rats [7]; 0.2 and 0.4 mmol/kg i.p.): did not show any noticeable changes in liver morphology; Kidney morphology (male Fischer 344 rats [8]): did not exhibit obvious changes in kidney morphology
